Measured values published in patent publication US9446047B2, “Substituted 2,3-dihydro-1H-inden-1-one retinoic acid-related orphan nuclear receptor antagonists for treating multiple sclerosis” (Arrien Pharmaceuticals LLC, priority 2013, dated 2016).
Like-named read-outs stand apart in the source and are kept apart here.

Columns and labels:
[1] = tested on: IL-17 release from CD4+ T cells; assay: Cytokine IL-17 estimation by HTRF, IL-17 release from CD4+ T cells; format: cell-based; settings: Homo sapiens, HTRF
[2] = molecular target: T1, RORγt (Homo sapiens, UniProt P51449); assay: RORγt-activated IL-17A Prom/LUCPorter HEK 293 cells luciferase reporter assay; format: cell-based; settings: IL-17A Prom/LUCPorter HEK 293 cells transfected with RORγt, 16 h
T1 construct: host or cells: IL-17A Prom/LUCPorter HEK 293 cell line (IMGENEX, IML-301)
T1 sequence (P51449 1-497 isoform P51449-2): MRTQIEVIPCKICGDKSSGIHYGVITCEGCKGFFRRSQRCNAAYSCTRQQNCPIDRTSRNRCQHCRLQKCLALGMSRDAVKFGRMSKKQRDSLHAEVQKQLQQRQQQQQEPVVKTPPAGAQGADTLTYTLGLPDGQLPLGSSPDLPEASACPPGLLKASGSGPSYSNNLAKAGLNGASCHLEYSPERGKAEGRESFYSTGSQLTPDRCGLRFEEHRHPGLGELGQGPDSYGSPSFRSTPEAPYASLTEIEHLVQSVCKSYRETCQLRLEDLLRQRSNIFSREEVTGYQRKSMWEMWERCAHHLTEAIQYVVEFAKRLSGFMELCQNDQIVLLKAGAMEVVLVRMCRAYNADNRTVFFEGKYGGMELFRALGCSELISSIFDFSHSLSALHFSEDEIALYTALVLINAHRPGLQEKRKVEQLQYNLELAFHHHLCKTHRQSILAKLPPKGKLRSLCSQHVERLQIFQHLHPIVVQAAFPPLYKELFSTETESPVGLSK

[3] = molecular target: T2, RORγ-LBD (RORγt) (Homo sapiens, UniProt P51449); assay: TR-FRET RORγt Binding Assay; settings: 6-His(GST)RORγ-LBD, SRC1_2 peptide
T2 construct: the 6-His-(GST) RORγ-LBD was used which expressed and purified from baculovirus infected Sf-21 insect cells; made in house; host or cells: baculovirus-infected Sf-21 insect cells
T2 sequence (P51449 269-508 limits assumed): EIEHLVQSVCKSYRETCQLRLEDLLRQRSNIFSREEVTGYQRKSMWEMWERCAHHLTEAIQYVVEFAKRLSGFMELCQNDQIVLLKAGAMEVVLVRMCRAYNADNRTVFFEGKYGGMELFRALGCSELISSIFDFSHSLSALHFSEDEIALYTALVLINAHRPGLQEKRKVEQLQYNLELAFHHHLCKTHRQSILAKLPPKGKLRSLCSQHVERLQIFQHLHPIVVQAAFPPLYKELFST

[4] = Rat pharmacokinetics, intravenous bolus and oral gavage; format: in vivo, male Sprague Dawley rats; settings: plasma
Description: The bio-availability and pharmacokinetics of some compounds of the present invention were examined in male Sprague Dawley rats. A total of 6 male rats were used in the study. The study was performed using parallel design (n=3) with serial sampling.
Dose formulations were prepared on the day of doing. Blood samples were collected at 0.083 (only IV), 0.25, 0.5, 1, 2, 4, 8 and 24 h post-dose. At each time point, approximately 0.2 mL of blood was withdrawn from each cannulated rat through jugular vein and transferred to a pre-labeled microfuge tube containing 20 μL of […] K2EDTA per mL of blood. Following collection of blood sample, equal volume of heparinized saline was flushed into jugular vein of rat. The blood samples were centrifuged at 5000 g for 5 min at 4±2° C. The plasma was separated within 30 min of scheduled time and stored below −60° C. until bio-analysis. The plasma samples were analyzed for selected test EXAMPLES using a fixed-for purpose liquid chromatographic tandem mass spectrometric detection (LC-MS/MS) method with a lower limit of quantification of 2.21 ng/mL. The pharmacokinetic parameters for select EXAMPLES were calculated using the non-compartmental analysis tool of validated WinNonlin® software (Version 5.2).
Pharmacokinetic parameters (mean±SD; n=3) of 7 following intravenous bolus and oral gavage administration of 7 solution in male Sprague Dawley rats are shown in TABLE 4 below: […]

[5] = tested on: IL-17 production; assay: Anti-CD3e antibody induced CD4+ T cell cytokine IL-17 production in male BALB/c mice (serum ELISA); format: in vivo, mouse; settings: Dexamethasone treatment; serum at 1.5 h after anti-CD3e antibody
Description: Efficacy of substituted 2, 3-dihydro-1H-inden-1-one containing selected compounds on Inhibition of Anti-CD3e Antibody induced CD4^+ T cell Cytokine-IL-17 Production in Male BALB/c Mice
A quantitative analysis of mouse IL-17 sandwich ELISA was conducted from the collected serum samples (Mouse IL-17 ELISA Ready-DuoSet ELISA kit, from R&D Systems, USA). The serum samples tested were collected from mice after 1.5 h of anti-CD3e antibody challenge, before antibody challenge, the mice were treated with different doses of test compounds or Dexamethasone as mentioned above in experimental design. The capture antibody was diluted in coating buffer (1×PBS) and transferred into each well. The plate was sealed and incubated overnight at RT. The following day the wells of the plate were aspirated and washed (3 times), allowing a one minute soak time in each step. The plate was blocked using 1% BSA in PBS, sealed, and incubated in ambient conditions for not less than one hour. After the incubation period, the plate was washed as described above, and the standards and serum samples were added to the appropriate wells and incubated for two hours at RT. […] The plate was read at 450/570 nm using the Microplate Absorbance Reader (SpectraMax; M3). […] Percent inhibition of cytokine production was calculated for all groups compared to positive control.

[6] = IL-17 release from CD4+ T cells, read-out: IL-17 Inhibition
[7] = IV 2 mg/kg, solution, male Sprague Dawley rats, mean±SD n=3
[8] = PO 10 mg/kg, solution, male Sprague Dawley rats, mean±SD n=3

COc1cc2c(cc1N1CCOCC1)CC(Cc1cccc(OC(F)(F)F)c1)C2=O (stereo not drawn) [compound 31, 6-methoxy-5-morpholino-2-(3-(trifluoromethoxy)benzyl)-2,3-dihydro-1H-inden-1-one]
IC50 [1, 6]: > 1000 nM | IC50 ([2]; read-out: RORγt Cell Specific): > 10000 nM | IC50 ([3]; read-out: RORγt Binding): > 1000 nM | bioavailability ([4]; male, Sprague Dawley, PO 10 mg/kg vs IV 2 mg/kg, AUCinf and nominal doses used, read-out: F (bioavailability)): 19% | AUC(0-inf) [4, 7]: 589 ± 63.9 ng·h/mL | AUC(0-t) [4, 7]: 572 ± 57.4 ng·h/mL | clearance [4, 7]: 57 ± 5.85 mL/min/kg | half-life [4, 7]: 6.63 ± 4.92 h | Cmax ([4]; IV 2 mg/kg, solution, male Sprague Dawley rats, mean±SD n=3, footnote b: back extrapolated concentration at time zero): 1940 ± 482 ng/mL | AUC(0-inf) [4, 8]: 558 ± 125 ng·h/mL | AUC(0-t) [4, 8]: 553 ± 124 ng·h/mL | Cmax [4, 8]: 176 ± 22.7 ng/mL | Tmax ([4]; PO 10 mg/kg, solution, male Sprague Dawley rats, median (min-max)): 2 h

C[C@@H]1C[C@H]2[C@@H]3CCC4=CC(=O)C=C[C@]4(C)[C@@]3(F)[C@@H](O)C[C@]2(C)[C@@]1(O)C(=O)CO [Dexamethasone, reference compound]
IC50 ([1]; CD4+ T lymphocytes, standards, read-out: IC50 of IL-17 inhibition (assay standards)): 14 nM | reduction in IL-17 production compared to positive control group [5]: 94%

COc1cc2c(cc1N1CCOCC1)CC(Cc1cccc(C(F)(F)F)c1)C2=O (stereo not drawn) [compound 37, 6-methoxy-5-morpholino-2-(3-(trifluoromethyl)benzyl)-2,3-dihydro-1H-inden-1-one]
IC50 [1, 6]: < 500 nM | IC50 ([2]; RORγt Cell Specific): < 500 nM | IC50 ([3]; RORγt Binding): < 500 nM

CCS(=O)(=O)Oc1ccc2c(c1)CC(Cc1ccc(SC(F)(F)F)cc1)C2=O (stereo not drawn) [compound 194]
IC50 [1, 6]: < 500 nM | IC50 ([2]; read-out: RORγt Cell Specific): < 500 nM | IC50 ([3]; read-out: RORγt Binding): < 500 nM

COc1cc2c(cc1N1CCOCC1)CC(Cc1ccc(C(F)(F)F)c(Cl)c1)C2=O (stereo not drawn) [compound 92]
IC50 [1, 6]: > 1000 nM | IC50 ([2]; read-out: RORγt Cell Specific): > 1000 nM | IC50 ([3]; read-out: RORγt Binding): > 1000 nM

COc1cc2c(cc1N1CCNCC1)CC(Cc1ncccc1C(F)(F)F)C2=O (stereo not drawn) [compound 164]
IC50 [1, 6]: < 500 nM | IC50 ([2]; read-out: RORγt Cell Specific): > 1000 nM | IC50 ([3]; read-out: RORγt Binding): < 500 nM
